Assay results as given in patent US20150065440A1 (Progen Pharmaceuticals Limited, priority 2007, published 2015).

Type: in vivo, Sprague-Dawley rats
Conditions: rat, in vivo, iv
Procedure: Adult male Sprague-Dawley (SD) rats (approx 300 g) were used for the experiment. Femoral artery cannulae was implanted and exteriorised following isoflurane anaesthesia. Jugular vein artery cannulae was implanted and exteriorized. […]. Blood samples (˜325 μL) were collected into sample tubes containing the anticoagulant sodium citrate from femoral artery catheter pre-dose and at 5, 20 minutes and 2, 5, 8, 12, 24, and 48 hours post-dose, and kept at reduced temperature (approx 4° C.) until centrifuged. Blood samples were centrifuged, plasma separated and 50 μL aliquot of the plasma transferred to a scintillation vial for counting. At the end of the experimental period animals were euthanased via a lethal overdose of pentobarbital. The level of radioactivity in the plasma was measured following mixing of samples with Packard Ultima Gold liquid scintillation counting cocktail. Counting was conducted on a Beckman liquid scintillation counter (LS6500) or Packard TriCarb liquid scintillation counter for 10 minutes per sample. Results (DPM, calculated from an in-built quench curve in the counter) were corrected for background prior to any calculations. The pharmacokinetic parameters were calculated using PK Solutions 2.0 software (Summit Research Services, Ohio, U.S.A.) and are summarised in Table 11 below.

Question: For `CC(C)CCC[C@@H](C)[C@H]1CC[C@H]2[C@@H]3CCC4CC(OCc5cn([C@@H]6O[C@H](COS(=O)(=O)[O-])[C@@H](O[C@H]7O[C@H](COS(=O)(=O)[O-])[C@@H](O[C@H]8O[C@H](COS(=O)(=O)[O-])[C@@H](OS(=O)(=O)[O-])[C@H](OS(=O)(=O)[O-])[C@H]8OS(=O)(=O)[O-])[C@H](OS(=O)(=O)[O-])[C@H]7OS(=O)(=O)[O-])[C@H](OS(=O)(=O)[O-])[C@H]6OS(=O)(=O)[O-])nn5)CC[C@]4(C)[C@H]3CC[C@]12C.[Na+].[Na+].[Na+].[Na+].[Na+].[Na+].[Na+].[Na+].[Na+].[Na+]` (stereo partly drawn) [Compound 70, 4-(Cholestan-3-yl-oxymethyl)[1,2,3]triazol-1-yl 2,3,4,6-tetra-O-sodium sulfonato-α-D-glucopyranosyl-(1→4)-2,3,6-tri-O-sodium sulfonato-α-D-glucopyranosyl-(1→4)-1-deoxy-2,3,6-tri-O-sodium sulfonato-β-D-glucopyranoside], which “Half-life (iv)” value is on record?
Answer: 10.3 h
